Assay results taken from patent US11149014B2, “Method for treating pain or associated condition or symptom” (priority 2014, dated 2021).
“And” between values parts separate entries of the source, which are not always exact repeats. Identical values can stand only once. Counter-ions that a name gives are not always drawn.

How the values were obtained:
[1] = test system: Raw 264.7 cells; assay: Reactive oxygen intermediate (ROI) production by Raw 264.7 macrophages (luminol/zymosan chemiluminescence); assay type: cell-based, mice; settings: Mus musculus, RAW264.7, read-out: inhibition of ROI generation
Method: (§1) Raw 264.7 cells, a monocytic-macrophage cell line derived from BALB/c mice, were obtained from American Type Culture collection (Rockville, Md.). The cells were cultured in Dulbecco's modified Eagle medium (DMEM) supplemented with 5% fetal calf serum (FCS) and sodium pyrovate, glutamine, and antibiotics. For activation, the cells were incubated with LPS (E. coli 1 μg/mL for 24 h, Sigma, Israel). These cells were applied for ROI and Nitric Oxide (NO) generation in-vitro.
Raw 264.7 cells were removed using a scrapper, washed, and re-suspended in Hanks balanced salt solution (without phenol red). For measurement of chemiluminescence, two luminometer tubes were each loaded with: 0.5 mL of cell suspension (5×10^5 cells), HU-436 (two separate doses in each tube of 40 μg/ml and 60 μg/ml), 10 μL luminol (Sigma) and 30 μL of zymosan (Sigma). The chemiluminescence in each tube was measured immediately thereafter by a luminometer (Biolumate LB 95, Berhold, Wilbad, Germany)

[2] = test system: RAW 264.7 macrophages; assay: Nitric oxide (NO) production by LPS-activated RAW 264.7 macrophages (Griess); assay type: cell-based, mice; settings: Mus musculus, RAW264.7; 60 μg/ml; LPS 1 μg/mL, 24 h
Method: as §1
RAW 264.7 macrophages were treated with various doses (1-60 μg/ml) of HU-436 followed the addition of 1 μg/mL of lipopolysaccharide (LPS, E. coli, Sigma) for activation. The macrophages were then cultivated in a humid atmosphere with 5% CO2 for 24 h. NO generation was determined by measuring the nitrite accumulated in the supernatants (100 μL) of the HU-436-treated macrophages as follows: An equal volume (100 μL) of Griess reagent (1% sulfanilamide, 0.1% naphthalene diamine HCl, 2% H3PO4) was added to each supernatant. Following 10 min of incubation at room temperature, the color production was measured at 550 nm with an ELISA reader. The concentration of nitrite was calculated according to a standard curve. The results are presented in FIG. 1 wherein inhibition of more than 50% was found fallowing incubation of the cells with 60 μg/ml HU-436.

[3] = test system: TNF-α; assay: TNF-α in supernatants of TG macrophages treated with LPS (ELISA); assay type: cell-based, mice; settings: Mus musculus, Macrophage, 40 μg/ml, read-out: inhibition in TNF production
Method: Peritoneal cells were harvested from C57BL/6 female mice 4 days after intra-peritoneal injection of 1.5 mL of 3% thioglycollate medium (Difco). The cells (TG macrophages) were washed with phosphate-buffered saline, re-suspended in Dulbecco's modified Eagle medium (DMEM) supplemented with 5% fetal calf serum (FCS), and plated (1.2×10^5) in 96-microwell flat-bottom plates (Nunc, Roskide, Denmark). Following 2-3 h incubation at 37° C., the non-adherent cells were removed by intensive rinsing. About 95% of the adherent cells were macrophages. These cells were applied for studying TNF production in-vitro.
TNF-α in the supernatants of TG macrophages treated with HU-436 (doses of […]) and LPS was determined by ELISA (R&D) with Ab pairs from Biosource (Camarillo, Calif.). Procedures were carried out following the manufacturer's instructions.

[4] = test system: TNF; assay: TNF level in serum of C57BL mice injected with LPS; assay type: in vivo; settings: 30 mg/Kg injected together with LPS; 90 min after injection
Method: Three doses of HU-436 (10 mg/Kg, 20 mg/Kg and 30 mg/Kg) were each injected to three C57BL mice together with LPS. Ninety min fallowing the injections, the mice were bled and the TNF levels in the serum were determined.

[5] = test system: C57BL; assay: Preliminary toxicological studies in C57BL; assay type: in vivo, mice
[6] = Weight loss Study 1: body weight of DBA/1 male mice injected Type II collagen for CIA; assay type: in vivo; settings: 5 mg/Kg intra-peritoneal for 16 days from day 18; 34 days
Method: DBA/1 male mice (6 weeks old, 20 gram, 15 mice/group) were injected Type II collagen for CIA. On day 18, the mice were injected (intra-peritoneal) with the following doses, for 16 days:
Vehicle: ethanol: chremophor: saline (1:1:18)
Methrotrexate (MTX): 0.5 mg/Kg.
In addition, a control group (wherein no dose was given) was monitored for comparison. The changes in body weight (in grams) was measured daily for a period of 34 days from injection. FIG. 4 (days 18-34) and FIG. 5 (overall change from day 1 to 34), show the changes in body weight of mice over a period of 34 days from injection.

[7] = Weight loss Study 2: weight change of normal Sabra mice; assay type: in vivo; settings: 5 mg/Kg intra-peritoneal; 15 and 24 days
Method: Normal Sabra (mice 9-10 weeks old, about 32 gram, 7 mice/group) were injected (intra-peritoneal) with two doses of HU-436 (5 mg/Kg and 10 mg/Kg). The change in weight of mice was measured daily for 15 (FIG. 6) and 24 days (FIG. 7) from injection. In addition, a control group (wherein no dose was given) was monitored for comparison.

[8] = Weight loss Study 3: weight gain and food consumption of C57BL/6 mice; assay type: in vivo; settings: for food consumption: after 1-3 weeks; for reduction in weight gain compared to the control group: three weeks
Method: C57BL/6 mice (8-9 weeks old, 16 gram, 5 mice/group) were injected (intra-peritoneal) with two doses of HU-436 (5 mg/Kg and 10 mg/Kg). The change in weight of mice was measured weekly for three weeks (FIGS. 8 and 9) from injection. In addition, a control group (wherein no dose was given) was monitored for comparison.

[9] = test system: Female sabra mice; assay: Forced swimming test (FST) for depressive effect; assay type: in vivo; settings: for moment/kicking per minute score, Mean: mean of last 4 min
Method: To find out whether HU436 has depressive effects on mice behavior—a forced swimming test (FST) was adopted.
Female sabra mice 6-8 weeks old were employed. Measurement of locomotor activity in mice movements were counted for 6 minutes.
Forced Swimming test (FST): The forced swimming test employed was essential similar to that described in ((Pettit-Demoulier et al, (2005) Psychopharmacology 177:245-255;)
Mice were dropped individually into a glass aquarium (height […], diameter 10 cm) containing 10 cm of water and their activity was monitored for 6 minutes. Of the total 6 minutes only the last 4 minutes was recorded—the first 2 minutes were considered as time for habitation.
The mice were treated either with 5 mg/kg or 10 mg/kg of HU436 (ip). Mice were scored at 10 minutes 90 minutes or 180 minutes after administration. In addition to mice treated with vehicle as control, 1 mice was injected ip with 5 mg/kg CBD and scored 10 minutes later. The movements/kicking of the mice were counted and the data are presented in the attached Table 1.

[10] = test system: Sabra mice; assay: Zymosan-induced hind paw swelling (inflammation), caliper; assay type: in vivo
[11] = test system: TNFα; assay: TNFα levels in sera of zymosan-injected Sabra mice (Elisa); assay type: in vivo; settings: 24 hrs after application
Method: (§2) Activity of HU-436 given orally were assayed in Sabra mice. Zymosan injected to mice left hind paw, induced inflammation, TNF (tumor necrosis factor) in the serum as well as pain. During 24 h, the inflammatory paw swelling response was assayed by caliper, whereas the pain in the hind paw, was determined by Von Frey monofiber instrument.
(§3) Sabra female, mice 6-7 weeks old, were employed. Zymosan 0.6 mgr in 40 micro-liters was injected into the left hind paw. Immediately thereafter 20 30, 50 or 100 mg/kg HU436 dissolved in olive oil, in 200 μl—was given orally. Two, six and twenty-four hours thereafter, the injected left hind paw of the mice (total 5-8 mice/treatment), were examined both for swelling (Inflammation) and pain (Von Frey). The levels of TNFα in the sera of Sabra mice were determined by Elisa, 24 hrs after HU-436 application.

[12] = test system: Sabra mice; assay: Zymosan-induced hind paw pain, Von Frey monofiber instrument; assay type: in vivo; settings: for pain reduction: 2, 6, 24 h
Method: as §2, §3
Pain, was assayed by employing Von-Frey monofiber instrument. The higher the log value measured, the more force (g) one has to apply to cause pain=higher analgesia is being expressed=less pain.

[13] = 5 mg/kg, 10 min after ip, minute 3 in tank
[14] = 5 mg/kg, 10 min after ip, minute 4 in tank
[15] = 5 mg/kg, 10 min after ip, minute 5 in tank
[16] = 5 mg/kg, 10 min after ip, minute 6 in tank

C=C(C)C1CCC(C)=CC1c1c(OC)cc(CCCCC)cc1OC(=O)CCN1CCOCC1 [HU-436, Maleate Salt of 3-methoxy-2-((6R)-3-methyl-6-(prop-l-en-2-yl)cyclohex-2-enyl)-5-pentylphenyl 3-morpholinopropanoate]
inhibition at 40 µg/mL ([1]; 40 μg/ml): 20% | inhibition at 60 µg/mL ([1]; 60 μg/ml): 28% | inhibition at 60 µg/mL [2]: > 50% | inhibition at 40 µg/mL [3]: > 60% | inhibition in TNF level in the serum [4]: 46% | toxicity ([5]; 50 mg/Kg): non-toxic | toxicity ([5]; 100 mg/Kg): non-toxic | reduction of body weight (weight gain of control group = 100% gain) [6]: up to 61% | changes in weight gain [7]: significantly decreased the changes in weight gain | food consumption ([8]; 5 mg/Kg intra-peritoneal): reduction in food consumption | reduction in weight gain compared to the control group ([8]; 5 mg/Kg intra-peritoneal): about 50% | food consumption ([8]; 10 mg/Kg intra-peritoneal): reduction in food consumption | reduction in weight gain compared to the control group ([8]; 10 mg/Kg intra-peritoneal): about 50% | moment/kicking per minute score, Mean ([9]; 5 mg/kg, 10 min after ip): 81 per minute | moment/kicking per minute score [9, 13]: 84 per minute | moment/kicking per minute score [9, 14]: 96 per minute | moment/kicking per minute score [9, 15]: 76 per minute | moment/kicking per minute score [9, 16]: 68 per minute | moment/kicking per minute score, Mean ([9]; 5 mg/kg, 90 min after ip): 75 per minute | moment/kicking per minute score ([9]; 5 mg/kg, 90 min after ip, minute 3 in tank): 70 per minute | moment/kicking per minute score ([9]; 5 mg/kg, 90 min after ip, minute 4 in tank): 85 per minute | moment/kicking per minute score ([9]; 5 mg/kg, 90 min after ip, minute 5 in tank): 72 per minute | moment/kicking per minute score ([9]; 5 mg/kg, 90 min after ip, minute 6 in tank): 73 per minute | moment/kicking per minute score, Mean ([9]; 10 mg/kg, 10 min after ip): 75 per minute | moment/kicking per minute score ([9]; 10 mg/kg, 10 min after ip, minute 3 in tank): 80 per minute | moment/kicking per minute score ([9]; 10 mg/kg, 10 min after ip, minute 4 in tank): 84 per minute | moment/kicking per minute score ([9]; 10 mg/kg, 10 min after ip, minute 5 in tank): 64 per minute | moment/kicking per minute score ([9]; 10 mg/kg, 10 min after ip, minute 6 in tank): 72 per minute | moment/kicking per minute score, Mean ([9]; 10 mg/kg, 180 min after ip): 77 per minute | moment/kicking per minute score ([9]; 10 mg/kg, 180 min after ip, minute 3 in tank): 76 per minute | moment/kicking per minute score ([9]; 10 mg/kg, 180 min after ip, minute 4 in tank): 52 per minute | moment/kicking per minute score ([9]; 10 mg/kg, 180 min after ip, minute 5 in tank): 90 per minute | moment/kicking per minute score ([9]; 10 mg/kg, 180 min after ip, minute 6 in tank): 90 per minute | moment/kicking per minute score, Mean ([9]; 10 mg/kg, time after ip not given): 81 per minute and 83 per minute | moment/kicking per minute score ([9]; 10 mg/kg, time after ip not given, minute 3 in tank): 79 per minute and 74 per minute | moment/kicking per minute score ([9]; 10 mg/kg, time after ip not given, minute 4 in tank): 80 per minute and 64 per minute | moment/kicking per minute score ([9]; 10 mg/kg, time after ip not given, minute 5 in tank): 89 per minute and 112 per minute | moment/kicking per minute score ([9]; 10 mg/kg, time after ip not given, minute 6 in tank): 76 per minute and 83 per minute | depressive activity ([9]; 5 or 10 mg/kg ip): did not cause depressive activity | inflammatory response (swelling) compared to controls ([10]; 20 mg/kg ip injection): reduction in inflammatory response (swelling) was observed compared to controls | inflammation compared to the controls ([10]; 30 mg/kg given orally): reduced inflammation compared to the controls | inflammation compared to the controls ([10]; 50 mg/kg given orally): reduced inflammation compared to the controls | anti-inflammation properties ([10]; conclusion): moderate anti-inflammation properties | reduction of TNFα levels in the sera [11]: up to 20% | pain reduction ([12]; 20 mg/kg given orally): marked pain reduction | pain reduction ([12]; 30 mg/kg given orally): marked pain reduction | pain reduction ([12]; 50 mg/kg given orally): marked pain reduction | pain reduction compared to Tremadol (5 mg/kg intra-peritoneally) ([12]; 50 mg/kg, after 24 hr): more potent after 24 hr than Tremadol | pain reduction ([12]; 100 mg/kg given orally): marked pain reduction | pain reduction compared to Aspirin ([12]; HU-436 30 or 50 mg/kg vs Aspirin 50 (and 100) mg/kg, 24 hr): the most potent in reducing pain for 24 hr | long lasting pain reduction compared to Cannabidiol, Aspirin ([12]; conclusion): more effective than Cannabidiol, Aspirin in reducing long lasting pain

C=C(C)[C@@H]1CCC(C)=C[C@H]1c1c(O)cc(CCCCC)cc1O [CBD, Cannabidiol, reference compound]
moment/kicking per minute score, Mean ([9]; 5 mg/kg, 10 min after ip): 65 per minute | moment/kicking per minute score [9, 13]: 76 per minute | moment/kicking per minute score [9, 14]: 75 per minute | moment/kicking per minute score [9, 15]: 48 per minute | moment/kicking per minute score [9, 16]: 60 per minute | potency in reducing inflammation relative to HU-436 ([10]; all experiments): scientifically more potent than HU-436 in reducing inflammation | reduction of TNFα levels in the sera [11]: 48-58%
